Measurements taken from PMC3041857 (Journal of medicinal chemistry, 2011).

What was measured:
[1] = tested on: PrP^Sc load in ScN2a-cl3 cells; assay type: cell-based, murine
[2] = mouse, in vivo

Compound | Antiprion activity (in words) [1] | further results
FC(F)(F)Oc1ccc(-c2csc(Nc3cc4ccccc4cn3)n2)cc1 [Compound 31, Isoquinolin-3-yl-[4-(4-trifluoromethoxyphenyl)-thiazol-2-yl]-amine] | inactive | –
CNc1nc(-c2ccc(OC)c(OC)c2)cs1 [Compound 5, 4-(3,4-dimethoxyphenyl)-N-methyl-1,3-thiazol-2-amine] | without significant activity | –
Cc1ccc(Nc2nc(-c3cc(-c4ccccc4)no3)cs2)nc1 [Compound 27, (5-Methylpyridin-2-yl)-[4-(3-phenylisoxazol-5-yl)-thiazol-2-yl]-amine] | – | Mean brain concentration in excess of in vitro EC50 ([2]; FVB): ≤ 25 fold; Brain versus plasma concentration [2]: generally exceeded those in plasma
Cc1ccc(Nc2nc(C)cs2)nc1 [Compound 29, (5-Methylpyridin-2-yl)-(4-methylthiazol-2-yl)-amine] | inactive | –
COc1ccc(-c2csc(Nc3cccc(C)n3)n2)cc1OC [Compound 4, [4-(3,4-dimethoxyphenyl)-thiazol-2-yl]-(6-methylpyridin-2-yl)-amine] | equipotent to 3 | –
[4-(3,4-dimethoxyphenyl)-thiazol-2-yl]-pyridin-3-yl-amine [Compound 7] | – | EC50 ([1]; read-out: ScN2a-cl3 EC50): 1.22 µM
Cc1csc(Nc2cc3ccccc3cn2)n1 [Compound 36, Isoquinolin-3-yl-(4-methylthiazol-2-yl)-amine] | inactive | –
